Reference: patent US10730863B2, “Bridged bicyclic compounds as farnesoid X receptor modulators” (BRISTOL-MYERS SQUIBB COMPANY, priority 2017, dated 2020)

Target: FXR (Homo sapiens (Human), UniProt Q96RI1)
Test: FXR EC50 (FXR agonist activity reported with each example)
Type: cell-based

FXR, sequence (Q96RI1 262-486): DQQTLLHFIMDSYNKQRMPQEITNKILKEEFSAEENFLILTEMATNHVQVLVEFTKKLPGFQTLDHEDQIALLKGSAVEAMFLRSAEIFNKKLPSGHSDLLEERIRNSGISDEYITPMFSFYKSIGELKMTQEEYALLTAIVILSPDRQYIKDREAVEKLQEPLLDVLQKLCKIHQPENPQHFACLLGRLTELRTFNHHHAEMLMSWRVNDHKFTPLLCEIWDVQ

SMILES	EC50
O=C(O)c1csc(C23CCC(COCc4c(-c5c(Cl)cccc5Cl)noc4C4CC4)(CC2)CC3)n1 [Example 162, 2-(4-(((5-cyclopropyl-3-(2,6-dichlorophenyl)isoxazol-4-yl)methoxy)methyl)bicyclo[2.2.2]octan-1-yl)thiazole-4-carboxylic acid]	1.3 µM
O=C(O)c1cccc(-c2noc(C34CCC(/C=C\c5c(-c6c(Cl)cccc6Cl)noc5C5CC5)(CC3)CC4)n2)c1 [Example 163, (Z)-3-(5-(4-(2-(5-cyclopropyl-3-(2,6-dichlorophenyl)isoxazol-4-yl)vinyl)bicyclo[2.2.2]octan-1-yl)-1,2,4-oxadiazol-3-yl)benzoic acid]	0.211 µM
O=C(O)c1ccc(-c2noc(C34CCC(/C=C\c5c(-c6c(Cl)cccc6Cl)noc5C5CC5)(CC3)CC4)n2)cc1 [Example 164]	1.6 µM
O=C(O)c1cccc(-c2noc(C34CCC(CNc5c(-c6c(Cl)cccc6Cl)noc5C5CC5)(CC3)CC4)n2)c1 [Example 166, 3-(5-(4-(((5-cyclopropyl-3-(2,6-dichlorophenyl)isoxazol-4-yl)amino)methyl)bicyclo[2.2.2]octan-1-yl)-1,2,4-oxadiazol-3-yl)benzoic acid]	0.58 µM
O=C(O)c1ccc(-c2noc(C34CCC(CNc5c(-c6c(Cl)cccc6Cl)noc5C5CC5)(CC3)CC4)n2)cc1 [Example 167]	0.53 µM
O=C(O)c1ccc2nc(C34CCC(COCc5c(-c6c(Cl)cccc6Cl)noc5C5CC5)(CC3)CC4)sc2c1 [Example 168, 2-(4-(((5-cyclopropyl-3-(2,6-dichlorophenyl)isoxazol-4-yl)methoxy)methyl)bicyclo[2.2.2]octan-1-yl)benzo[d]thiazole-6-carboxylic acid]	1.2 µM
O=C(O)c1ccc(NC(=O)C23CCC(COCc4c(-c5c(Cl)cccc5Cl)noc4C4CC4)(CC2)CC3)c(Cl)c1 [Example 170, 3-chloro-4-(4-(((5-cyclopropyl-3-(2,6-dichlorophenyl)isoxazol-4-yl)methoxy)methyl)bicyclo[2.2.2]octane-1-carboxamido)benzoic acid]	0.636 µM
O=C(O)c1ccc(NC(=S)C23CCC(COCc4c(-c5c(Cl)cccc5Cl)noc4C4CC4)(CC2)CC3)c(Cl)c1 [Example 171, 3-chloro-4-(4-(((5-cyclopropyl-3-(2,6-dichlorophenyl)isoxazol-4-yl)methoxy)methyl)bicyclo[2.2.2]octane-1-carbothioamido)benzoic acid]	4.7 µM
O=C(O)c1cccc2nc(C34CCC(COCc5c(-c6c(Cl)cccc6Cl)noc5C5CC5)(CC3)CC4)sc12 [Example 172, 2-(4-(((5-cyclopropyl-3-(2,6-dichlorophenyl)isoxazol-4-yl)methoxy)methyl)bicyclo[2.2.2]octan-1-yl)benzo[d]thiazole-7-carboxylic acid]	0.089 µM
O=C(O)c1cccc(NC(=O)C23CCC(COCc4c(-c5c(Cl)cccc5Cl)noc4C4CC4)(CC2)CC3)c1Cl [Example 173]	1.4 µM
O=C(O)c1ccc(C23CCC(COCc4c(-c5c(Cl)cccc5Cl)noc4C4CC4)(CC2)CC3)cc1 [Example 174, 4-(4-(((5-cyclopropyl-3-(2,6-dichlorophenyl)isoxazol-4-yl)methoxy)methyl)bicyclo[2.2.2]octan-1-yl)benzoic acid]	0.21 µM
O=C(O)c1csc(OCC23CCC(COCc4c(-c5c(Cl)cccc5Cl)noc4C4CC4)(CC2)CC3)n1 [Example 176, 2-((4-(((5-cyclopropyl-3-(2,6-dichlorophenyl)isoxazol-4-yl)methoxy)methyl)bicyclo[2.2.2]octan-1-yl)methoxy)thiazole-4-carboxylic acid]	0.74 µM
O=C(O)c1coc(C23CCC(COCc4c(-c5c(Cl)cccc5Cl)noc4C4CC4)(CC2)CC3)n1 [Example 177, 2-(4-(((5-cyclopropyl-3-(2,6-dichlorophenyl)isoxazol-4-yl)methoxy)methyl)bicyclo[2.2.2]octan-1-yl)oxazole-4-carboxylic acid]	1.8 µM
O=C(O)c1ccc2nc(C34CCC(COCc5c(-c6c(Cl)cccc6Cl)noc5C5CC5)(CC3)CC4)oc2c1 [Example 178, 2-(4-(((5-cyclopropyl-3-(2,6-dichlorophenyl)isoxazol-4-yl)methoxy)methyl)bicyclo[2.2.2]octan-1-yl)benzo[d]oxazole-6-carboxylic acid]	0.91 µM
Cc1nc(C23CCC(COCc4c(-c5c(Cl)cccc5Cl)noc4C4CC4)(CC2)CC3)sc1C(=O)O [Example 179, 2-(4-(((5-cyclopropyl-3-(2,6-dichlorophenyl)isoxazol-4-yl)methoxy)methyl)bicyclo[2.2.2]octan-1-yl)-4-methylthiazole-5-carboxylic acid]	0.56 µM
O=C(O)c1ccc2nc(C34CCC(/C=C/c5c(-c6c(Cl)cccc6Cl)noc5C5CC5)(CC3)CC4)sc2c1 [Example 180, (E)-2-(4-(2-(5-cyclopropyl-3-(2,6-dichlorophenyl)isoxazol-4-yl)vinyl)bicyclo[2.2.2]octan-1-yl)benzo[d]thiazole-6-carboxylic acid]	0.043 µM
O=C(O)c1ccc2nc(C34CCC(/C=C\c5c(-c6c(Cl)cccc6Cl)noc5C5CC5)(CC3)CC4)sc2c1 [Example 181, (Z)-2-(4-(2-(5-cyclopropyl-3-(2,6-dichlorophenyl)isoxazol-4-yl)vinyl)bicyclo[2.2.2]octan-1-yl)benzo[d]thiazole-6-carboxylic acid]	0.78 µM
O=C(O)c1ccc2nc(C34CCC(/C=C/c5c(-c6ccccc6OC(F)(F)F)noc5C5CC5)(CC3)CC4)sc2c1 [Example 182, (E)-2-(4-(2-(5-cyclopropyl-3-(2-(trifluoromethoxy)phenyl)isoxazol-4-yl)vinyl)bicyclo[2.2.2]octan-1-yl)benzo[d]thiazole-6-carboxylic acid]	0.1 µM
O=C(O)c1cccc2nc(C34CCC(C=Cc5c(-c6ccccc6OC(F)(F)F)noc5C5CC5)(CC3)CC4)sc12 [Example 183]	0.013 µM
O=C(O)c1cccc2nc(C34CCC(C=Cc5c(-c6c(Cl)cccc6Cl)noc5C5CC5)(CC3)CC4)sc12 [Example 184]	0.02 µM
O=C(O)c1cccc(NC(=O)C23CCC(C=Cc4c(-c5c(Cl)cccc5Cl)noc4C4CC4)(CC2)CC3)c1Cl [Example 185]	1.4 µM

SMILES	EC50
O=C(O)c1cccc2nc(C34CCC(C=Cc5c(-c6ccccc6OC(F)(F)F)noc5C5CC5)(CC3)CC4)sc12 [Example 186]	0.067 µM
COC(=O)c1cccc(NC(=O)C23CCC(C=Cc4c(-c5c(Cl)cccc5Cl)noc4C4CC4)(CC2)CC3)c1 [Example 187]	3 µM
O=C(O)c1cccc(NC(=O)C23CCC(C=Cc4c(-c5c(Cl)cccc5Cl)noc4C4CC4)(CC2)CC3)c1 [Example 188]	0.12 µM
O=C(O)c1cccc2nc(C34CCC(C=Cc5c(-c6c(Cl)cccc6Cl)noc5C5CC5)(CC3)CC4)sc12 [Example 189]	0.063 µM
O=C(O)c1cccc(NC(=O)C23CCC(C=Cc4c(-c5c(Cl)cccc5Cl)noc4C4CC4)(CC2)CC3)c1 [Example 190]	3.5 µM
O=C(O)c1cc(F)c2nc(OCC34CCC(C=Cc5c(-c6c(Cl)cccc6Cl)noc5C5CC5)(CC3)CC4)sc2c1 [Example 191]	0.058 µM
O=C(O)c1ccc2nc(OCC34CCC(C=Cc5c(-c6c(Cl)cccc6Cl)noc5C5CC5)(CC3)CC4)sc2c1 [Example 192]	0.0072 µM
O=C(O)c1cccc(-c2noc(C34CCC(OCc5c(-c6c(Cl)cccc6Cl)noc5C5CC5)(CC3)CO4)n2)c1 [Example 193, 3-(5-(4-((5-cyclopropyl-3-(2,6-dichlorophenyl)isoxazol-4-yl)methoxy)-2-oxabicyclo[2.2.2]octan-1-yl)-1,2,4-oxadiazol-3-yl)benzoic acid]	0.026 µM
O=C(O)c1ccc(C23CCC(/C=C/c4c(-c5c(Cl)cccc5Cl)noc4C4CC4)(CC2)CO3)cc1 [Example 194, (E)-4-(4-(2-(5-cyclopropyl-3-(2,6-dichlorophenyl)isoxazol-4-yl)vinyl)-2-oxabicyclo[2.2.2]octan-1-yl)benzoic acid]	0.034 µM
O=C(O)c1cccc(C23CCC(COCc4c(-c5c(Cl)cccc5Cl)noc4C4CC4)(CC2)CO3)c1 [Example 195, 3-(4-(((5-cyclopropyl-3-(2,6-dichlorophenyl)isoxazol-4-yl)methoxy)methyl)-2-oxabicyclo[2.2.2]octan-1-yl)benzoic acid]	0.047 µM
O=C(O)c1ccc(-c2noc(C34CCC(OCc5c(-c6c(Cl)cccc6Cl)noc5C5CC5)(CC3)CO4)n2)cc1 [Example 196]	0.083 µM
O=C(O)c1cccc(/C=C/C23CCC(COCc4c(-c5ccccc5OC(F)(F)F)noc4C4CC4)(CC2)CO3)c1 [Example 197, (E)-3-(2-(4-(((5-cyclopropyl-3-(2-(trifluoromethoxy)phenyl)isoxazol-4-yl)methoxy)methyl)-2-oxabicyclo[2.2.2]octan-1-yl)vinyl)benzoic acid]	0.09 µM
O=C(O)c1cc(-c2noc(C34CCC(OCc5c(-c6c(Cl)cccc6Cl)noc5C5CC5)(CC3)CO4)n2)ccc1F [Example 198]	0.098 µM
O=C(O)c1cccc(-c2noc(C34CCC(OCc5c(-c6ccccc6OC(F)(F)F)noc5C5CC5)(CC3)CO4)n2)c1 [Example 199]	0.22 µM
O=C(O)c1cccc(/C=C/C23CCC(COCc4c(-c5c(Cl)cccc5Cl)noc4C4CC4)(CC2)CO3)c1 [Example 200]	0.22 µM
O=C(O)c1ccc(C23CCC(COCc4c(-c5c(Cl)cccc5Cl)noc4C4CC4)(CC2)CO3)cc1 [Example 201]	0.27 µM
O=C(O)c1cc(C23CCC(COCc4c(-c5c(Cl)cccc5Cl)noc4C4CC4)(CC2)CO3)ccc1F [Example 202]	0.39 µM
O=C(O)c1ccc(C23CCC(CNc4c(-c5c(Cl)cccc5Cl)noc4C4CC4)(CC2)CO3)cc1 [Example 203, 4-(4-(((5-cyclopropyl-3-(2,6-dichlorophenyl)isoxazol-4-yl)amino)methyl)-2-oxabicyclo[2.2.2]octan-1-yl)benzoic acid]	0.42 µM
O=C(O)c1cccc(C23CCC(COCc4c(-c5ccccc5OC(F)(F)F)noc4C4CC4)(CC2)CO3)c1 [Example 204]	0.44 µM
O=C(O)c1ccc(C23CCC(COCc4c(-c5ccccc5OC(F)(F)F)noc4C4CC4)(CC2)CO3)cc1 [Example 205]	0.45 µM
O=C(O)c1cccc(-c2noc(C34CCC(OCc5c(-c6c(Cl)cncc6Cl)noc5C5CC5)(CC3)CO4)n2)c1 [Example 206]	0.49 µM
